Measurements from the supplement of paper PMC11208160.

Experiment: recombinant UMI read abundance after kanamycin selection (control-corrected) (log10(CPM+1)); higher = more efficient recombination; extreme values may be limits of the assay; sequences stand for … in AGTGCAGAGAAAATCGGCCAGTTTTCTCTGCCTGCAGTCCGCATGCCGTGGGACCCCTTGGGTTCTAACCTGTTGCCTAGATTTATGCAGCGGACTGCCTTTCTCCCAAAGTGATAAACCGG…AGGTTGGTTTCACT; site = the 11-nt donor
Procedure, shortened: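 Counts of recombinant UMIs were reported as log10(CPM+1). Before that, they were converted to CPM, averaged over replicates and scaled using control-derived factors. They came from PCR across the donor–target junction after Escherichia coli carrying the pair library and target plasmid was plated on IPTG (0.07 mM) plus kanamycin, or unselected, in two replicates each.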
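Also: IS621 bridge recombinase in Escherichia coli cells against a fixed T5 target plasmid.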

TATTTGGCATGGACCGGTTTTCCCGGTAATCCGTATTTGTT (site TATTTGGCTTA)
recombinant UMI read abundance (log10): 0

TCAAATGCATGGACCGGTTTTCCCGGTAATCCGTATTTGCC (site TCAAATGCTGG)
recombinant UMI read abundance (log10): 0

TCAAGGACATGGACCGGTTTTCCCGGTAATCCGTATTTGCA (site TCAAGGACTTG)
recombinant UMI read abundance (log10): 1.86

TCAAGGCCATGGACCGGTTTTCCCGGTAATCCGTATTTGGT (site TCAAGGCCTAC)
recombinant UMI read abundance (log10): 0.00348

TCACCGACATGGACCGGTTTTCCCGGTAATCCGTATTTGGA (site TCACCGACTTC)
recombinant UMI read abundance (log10): 0.0438

TCACGCCCATGGACCGGTTTTCCCGGTAATCCGTATTTGCT (site TCACGCCCTAG)
recombinant UMI read abundance (log10): 2.1

TCAGAGACATGGACCGGTTTTCCCGGTAATCCGTATTTGTG (site TCAGAGACTCA)
recombinant UMI read abundance (log10): 1.03

TCAGAGACATGGACCGGTTTTCCCGGTAATCCGTATTTGTG (site TCAGAGACTCC)
recombinant UMI read abundance (log10): 0.353

TCAGAGACATGGACCGGTTTTCCCGGTAATCCGTATTTGTG (site TCAGAGACTCG)
recombinant UMI read abundance (log10): 1.44

TCAGAGACATGGACCGGTTTTCCCGGTAATCCGTATTTGTG (site TCAGAGACTCT)
recombinant UMI read abundance (log10): 0.205

TCAGAGCCATGGACCGGTTTTCCCGGTAATCCGTATTTGCG (site TCAGAGACTCG)
recombinant UMI read abundance (log10): 0.00993

TCAGAGCCATGGACCGGTTTTCCCGGTAATCCGTATTTGCG (site TCAGAGCCTCG)
recombinant UMI read abundance (log10): 0.295

TCAGAGCCATGGACCGGTTTTCCCGGTAATCCGTATTTGCG (site TCAGAGGCTCG)
recombinant UMI read abundance (log10): 0.00861

TCAGAGCCATGGACCGGTTTTCCCGGTAATCCGTATTTGCG (site TCAGAGTCTCG)
recombinant UMI read abundance (log10): 2.36

TCAGAGTCATGGACCGGTTTTCCCGGTAATCCGTATTTGCG (site TCAGAGACTCG)
recombinant UMI read abundance (log10): 0.877

TCAGAGTCATGGACCGGTTTTCCCGGTAATCCGTATTTGCG (site TCAGAGCCTCG)
recombinant UMI read abundance (log10): 0.625

TCAGAGTCATGGACCGGTTTTCCCGGTAATCCGTATTTGCG (site TCAGAGGCTCG)
recombinant UMI read abundance (log10): 0.0319

TCAGAGTCATGGACCGGTTTTCCCGGTAATCCGTATTTGCG (site TCAGAGTCTCG)
recombinant UMI read abundance (log10): 3

TCAGTACCATGGACCGGTTTTCCCGGTAATCCGTATTTGTG (site TCAGTACCTCA)
recombinant UMI read abundance (log10): 0.023

TCAGTAGCATGGACCGGTTTTCCCGGTAATCCGTATTTGAT (site TCAGTAGCTAT)
recombinant UMI read abundance (log10): 2.12

TCAGTATCATGGACCGGTTTTCCCGGTAATCCGTATTTGCG (site ACAGTATCTTG)
recombinant UMI read abundance (log10): 0

TCAGTATCATGGACCGGTTTTCCCGGTAATCCGTATTTGCG (site TCAGTATCTCG)
recombinant UMI read abundance (log10): 1.85

TCAGTCCCATGGACCGGTTTTCCCGGTAATCCGTATTTGGT (site TCAGTCCCTAC)
recombinant UMI read abundance (log10): 0

TCATAGACATGGACCGGTTTTCCCGGTAATCCGTATTTGCG (site TCAAAGACTCG)
recombinant UMI read abundance (log10): 0.629

TCATAGACATGGACCGGTTTTCCCGGTAATCCGTATTTGCG (site TCACAGACTCG)
recombinant UMI read abundance (log10): 0.285

TCATAGACATGGACCGGTTTTCCCGGTAATCCGTATTTGCG (site TCAGAGACTCG)
recombinant UMI read abundance (log10): 0.00296

TCATAGACATGGACCGGTTTTCCCGGTAATCCGTATTTGCG (site TCATAGACTCG)
recombinant UMI read abundance (log10): 1.87

TCATAGACATGGACCGGTTTTCCCGGTAATCCGTATTTGGA (site TCATAGACTTC)
recombinant UMI read abundance (log10): 0.712

TCATCAGCATGGACCGGTTTTCCCGGTAATCCGTATTTGAT (site TCATCAGCTAT)
recombinant UMI read abundance (log10): 0.316

TCATCTCCATGGACCGGTTTTCCCGGTAATCCGTATTTGTC (site TCATCTCCTGA)
recombinant UMI read abundance (log10): 0

TCATGATCATGGACCGGTTTTCCCGGTAATCCGTATTTGCC (site TCATGATCTGG)
recombinant UMI read abundance (log10): 0.807

TCATGATCATGGACCGGTTTTCCCGGTAATCCGTATTTGGA (site TCATGATCTTC)
recombinant UMI read abundance (log10): 1.32

TCCAACCCATGGACCGGTTTTCCCGGTAATCCGTATTTGCC (site TCCAACCCTGG)
recombinant UMI read abundance (log10): 0

TCCAACGCATGGACCGGTTTTCCCGGTAATCCGTATTTGAT (site TCCAACGCTAT)
recombinant UMI read abundance (log10): 0

TCCACACCATGGACCGGTTTTCCCGGTAATCCGTATTTGAG (site TCCACACCTCT)
recombinant UMI read abundance (log10): 0.0221

TCCACAGCATGGACCGGTTTTCCCGGTAATCCGTATTTGCG (site TCCACAGCTCG)
recombinant UMI read abundance (log10): 0

TCCACAGCATGGACCGGTTTTCCCGGTAATCCGTATTTGCG (site TCCACCGCTCG)
recombinant UMI read abundance (log10): 0.00793

TCCACAGCATGGACCGGTTTTCCCGGTAATCCGTATTTGCG (site TCCACGGCTCG)
recombinant UMI read abundance (log10): 0.0203

TCCACAGCATGGACCGGTTTTCCCGGTAATCCGTATTTGCG (site TCCACTGCTCG)
recombinant UMI read abundance (log10): 0.0252

TCCACCCCATGGACCGGTTTTCCCGGTAATCCGTATTTGCG (site TCCACCACTCG)
recombinant UMI read abundance (log10): 0.00655

TCCACCCCATGGACCGGTTTTCCCGGTAATCCGTATTTGCG (site TCCACCCCTCG)
recombinant UMI read abundance (log10): 0.0148

TCCACCCCATGGACCGGTTTTCCCGGTAATCCGTATTTGCG (site TCCACCGCTCG)
recombinant UMI read abundance (log10): 0.0184

TCCACCCCATGGACCGGTTTTCCCGGTAATCCGTATTTGCG (site TCCACCTCTCG)
recombinant UMI read abundance (log10): 0.00748

TCCACCGCATGGACCGGTTTTCCCGGTAATCCGTATTTGAG (site TCCACCGCTCA)
recombinant UMI read abundance (log10): 0.0207

TCCACCGCATGGACCGGTTTTCCCGGTAATCCGTATTTGAG (site TCCACCGCTCC)
recombinant UMI read abundance (log10): 0.0231

TCCACCGCATGGACCGGTTTTCCCGGTAATCCGTATTTGAG (site TCCACCGCTCG)
recombinant UMI read abundance (log10): 0.0211

TCCACCGCATGGACCGGTTTTCCCGGTAATCCGTATTTGAG (site TCCACCGCTCT)
recombinant UMI read abundance (log10): 0.0235

TCCACCGCATGGACCGGTTTTCCCGGTAATCCGTATTTGCA (site TCCACCGCTAG)
recombinant UMI read abundance (log10): 0.00852

TCCACCGCATGGACCGGTTTTCCCGGTAATCCGTATTTGCA (site TCCACCGCTCG)
recombinant UMI read abundance (log10): 0

TCCACCGCATGGACCGGTTTTCCCGGTAATCCGTATTTGCA (site TCCACCGCTGG)
recombinant UMI read abundance (log10): 0

TCCACCGCATGGACCGGTTTTCCCGGTAATCCGTATTTGCA (site TCCACCGCTTG)
recombinant UMI read abundance (log10): 0.167

TCCACCGCATGGACCGGTTTTCCCGGTAATCCGTATTTGTG (site TCCACCGCTCA)
recombinant UMI read abundance (log10): 0.0465

TCCACCGCATGGACCGGTTTTCCCGGTAATCCGTATTTGTG (site TCCACCGCTCC)
recombinant UMI read abundance (log10): 0.00628

TCCACCGCATGGACCGGTTTTCCCGGTAATCCGTATTTGTG (site TCCACCGCTCG)
recombinant UMI read abundance (log10): 0.00762

TCCACCGCATGGACCGGTTTTCCCGGTAATCCGTATTTGTG (site TCCACCGCTCT)
recombinant UMI read abundance (log10): 0.0682

TCCACTGCATGGACCGGTTTTCCCGGTAATCCGTATTTGCG (site TCCACAGCTCG)
recombinant UMI read abundance (log10): 0

TCCACTGCATGGACCGGTTTTCCCGGTAATCCGTATTTGCG (site TCCACCGCTCG)
recombinant UMI read abundance (log10): 0
